Literature values in US20050118256A1, “Extended release alpha-2 agonist pharmaceutical dosage forms” (priority 2003, published 2005).
Counter-ions that a name gives are not always drawn.

Tested on: skeletal muscle fibers, neuromuscular junction, spinal reflexes
Details: animal models

SMILES: Clc1ccc2nsnc2c1NC1=NCCN1 [Tizanidine, 5-chloro-4-(2-imidazolin-2-ylamino)-2,1,3-benzothiodiazole hydrochloride]
- effect on monosynaptic spinal reflexes: no major effect
- effect on skeletal muscle fibers or the neuromuscular junction: no direct effect
